{"source": "patent US20110054033A1", "about": "“METHODS OF USING ABSCISIC ACID FOR AMELIORATING HYPERTENSION AND VASCULAR INFLAMMATION” (Virginia Tech Intellectual Properties, Inc., priority 2009, published 2011)", "key": {"[1]": {"test_system": "vascular smooth muscle cells and primary human monocytes", "conditions": "stimulated in culture for 6 hours, Magnone et al., 2009; cited from earlier work"}, "ApoE-deficient mice": {"test_system": "ApoE-deficient mice", "experiment": "Histology analyses of the aorta (areas, thickness, lesion severity)", "type": "in vivo", "procedure": "FIG. 4 are photos and graphs showing aortas collected on day 84 of dietary intervention. Representative photomicrographs (100×) of aortic root specimens from (A) control and (B) ABA-fed mice. (C) Analysis of lumenal areas and (D) tunica media areas were performed with aortic cross-sections using Image Pro Plus software. (E) Aortic thickness was analyzed as a ratio of the intima to the media. Gene expression in the aorta of (F) endothelial nitric oxide synthase (eNOS) and (G) 15-lipoxygenase (15-LOX) were measured as a ratio to the house-keeping gene β-actin. Data were analyzed as a completely randomized design.\nFIG. 5 are photos and graphs showing histological examination of aortic lesions. ApoE −/− mice were fed high fat diets created with or without abscisic acid (ABA, 100 mg/kg diet). After 84 days aortas were excised and lesions were analyzed histologically according to methods described by van Vlijmen et al[13]. Representative photomicrographs (100×) of a (A) mild and (B) severe lesion are depicted. (C) The total number of mild (categories 1-3) and severe (categories 4-5) lesions from control and ABA-fed mice are shown. (D) Lesional areas, as a percent of total lumen area, for control and ABA-fed mice were calculated from histological sections with Image Pro Plus software. Data are represented as mean±standard error.\nThe aortic root sections used for histological analyses were perfusion-fixed with paraformaldehyde. Samples of aortas were cut transversally, stained with hematoxylin and eosin, and analyzed histologically. Areas for the lumen, tunica media, and aortic lesions and the thicknesses of the tunica intima and media were assessed using Image Pro Plus 6.1 software (Media Cybernetics, Bethesda, Md.). For thickness analyses, eight different measurements from the intima and media were taken using previously described methods (Hazell et al., Free Radic. Biol. Med. 31:1254-62, 2001). For semiquantitative assessment of lesion severity, methods described by van Vlijmen et al were used (van Vlijmen et al., J. Clin. Invest. 93:1403-10, 1994). Briefly, lesions were classified into five categories (1) early fatty streak: per section up to 10 foam cells present in the intima, (2) regular fatty streak: more than 10 cells present in the intima, (3) mild plaque: extension of foam cells into the media and mild fibrosis of the media without significant loss in architecture, (4) moderate plaque: foam cells in media, fibrosis, cholesterol clefts, mineralization, and/or necrosis of the media, (5) severe plaque: as 4 but more extensive and deeper in the media. Scoring classifications were applied to 15 lesions from control and ABA-fed mice. Lesions falling in categories 1-3 were classified as mild and 4-5 as severe."}, "[2]": {"experiment": "FPLC separation of plasma lipoproteins", "type": "in vivo", "conditions": "ApoE-deficient mice, FIG. 2", "procedure": "(§1) FIG. 2 is a graph showing fast performance liquid chromatography (FPLC) separation of plasma lipoproteins performed on a Superose 6 column using buffer containing 0.15M NaCl, 0.01M Na2HPO4 and 1 mM EDTA at a flow rate of 0.5 ml/min. Forty 0.5 ml fractions were collected and cholesterol was measured in fractions 10-40. Fractions 15-20 contain VLDL, fractions 21-27 contain LDL and fractions 28-34 contain HDL.\nas §1, with “Plasma cholesterol and triglyceride levels were measured using kits from Raichem (San Diego, Calif.) adapted for microtiter plate assays. Plasma free fatty acids were measured using the NEFA-HR(2) kit from Wako. Fast” for “FIG. 2 is a graph showing fast”, “lipoproteins was” for “lipoproteins”"}, "[3]": {"test_system": "human aorta endothelial cells (HAECs)", "experiment": "Nitric oxide in HAEC culture supernatants", "type": "cell-based", "conditions": "0.001-10 μM ABA", "procedure": "FIG. 7 are graphs showing effect of ABA on (A) cAMP; (B) NO; and (C) eNOS. (A) Confluent human aortic endothelial cell (HAEC) were serum-starved using HBSS buffer for 30 min and then stimulated with various concentrations of ABA (0, 0.01, 0.1, 1, 10 μM) or Forskolin (1 μM) for […]. After removing supernatant, cells were lysated with 0.1 M HCL for 20 minutes to measure non-acetylated cAMP. (B) Confluent HAEC were serum-starved using HBSS buffer for 30 minutes and then stimulated with various concentrations of ABA (0, 0.001, 0.01, 0.1, 1, 10 μM) for 15 minutes to measure NO. Results (pmol/ml) from four independent experiments are depicted. […]\nConfluent human aorta endothelial cells (HAECs) at passage 3 maintained with EGM-2 media (Clonetics, Walkerville, Md.) were adapted to Hank's buffered salt solution buffer for 30 min and then stimulated with ABA or forskolin (1 μM) for 10 min. For intracellular assessment of cAMP, the cells were harvested into 0.1 M HCL and the lysates were obtained by sonication and centrifugation. cAMP the lysates were determined by using an EIA kit (Assay Designs, Ann Arbor, Mich.) and results were obtained from four independent experiments. Nitric oxide levels in the cell culture supernatants were determined with the Nitric Oxide Assay Kit according to manufacturer's instructions (Assay Designs). […]"}}}
{"compound": "CC1=CC(=O)CC(C)(C)C1(O)/C=C/C(C)=C\\C(=O)O", "note": "(racemic) [ABA, abscisic acid]", "values": [{"measurement": "MCP-1", "setting": "[1]", "result": "increases"}, {"measurement": "MMP-9", "setting": "[1]", "result": "increases"}, {"measurement": "Lesion area as a percent of total lumenal area vs control", "setting": "ApoE-deficient mice; day 84", "result": "significantly decreased"}, {"measurement": "Aortic luminal area vs control", "setting": "ApoE-deficient mice; day 84, aortic cross-sections", "result": "no significant differences"}, {"measurement": "Aortic tunica media area vs control", "setting": "ApoE-deficient mice; day 84, aortic cross-sections", "result": "no significant differences"}, {"measurement": "Intima to media ratio vs control", "setting": "ApoE-deficient mice; day 84, aortic root", "result": "significantly lower"}, {"measurement": "Number of mild lesions (categories 1-3)", "setting": "ApoE-deficient mice; of 15 lesions scored, day 84", "result": 10}, {"measurement": "Number of severe lesions (categories 4-5)", "setting": "ApoE-deficient mice; of 15 lesions scored, day 84, control-fed mice 8 of 15", "result": 5}, {"measurement": "FPLC lipoprotein cholesterol profile vs control diet", "setting": "[2]", "result": "slight shift in the profiles to lower VLDL and higher LDL and HDL"}, {"measurement": "NO production", "setting": "[3]", "result": "enhanced NO production"}]}
